Results published in PubChem BioAssay (NCI).
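Dose response: 5 concentrations. Exposure: 48 h. Format: 96-well plates. Endpoint: linear interpolation; highest concentration if not reached. TGI: concentration producing complete growth inhibition.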

Assays:
Assay in all cases: NCI-60 cell line screen, 48 h
HCT-15 colon = system: HCT-15 colon
RXF 393 renal = system: RXF 393 renal
UO-31 renal = system: UO-31 renal
NCI-H522 lung = system: NCI-H522 lung
MALME-3M melanoma = system: MALME-3M melanoma
NCI-H460 lung = system: NCI-H460 lung
UACC-62 melanoma = system: UACC-62 melanoma
RPMI-8226 leukemia = system: RPMI-8226 leukemia
SF-295 CNS = system: SF-295 CNS
CCRF-CEM leukemia = system: CCRF-CEM leukemia
OVCAR-4 ovarian = system: OVCAR-4 ovarian
COLO 205 colon = system: COLO 205 colon
HL-60(TB) leukemia = system: HL-60(TB) leukemia
TK-10 renal = system: TK-10 renal
HCC-2998 colon = system: HCC-2998 colon
SW-620 colon = system: SW-620 colon
OVCAR-5 ovarian = system: OVCAR-5 ovarian
MOLT-4 leukemia = system: MOLT-4 leukemia
786-0 renal = system: 786-0 renal
SK-MEL-5 melanoma = system: SK-MEL-5 melanoma
SN12C renal = system: SN12C renal
U251 CNS = system: U251 CNS
EKVX NSCLC = system: EKVX NSCLC
HOP-62 NSCLC = system: HOP-62 NSCLC
HCT-116 colon = system: HCT-116 colon
DMS 273 small cell lung = system: DMS 273 small cell lung
A549 NSCLC = system: A549 NSCLC
KM12 colon = system: KM12 colon
OVCAR-8 ovarian = system: OVCAR-8 ovarian
SK-MEL-2 melanoma = system: SK-MEL-2 melanoma
OVCAR-3 ovarian = system: OVCAR-3 ovarian
SNB-78 CNS = system: SNB-78 CNS
CAKI-1 renal = system: CAKI-1 renal
SK-OV-3 ovarian = system: SK-OV-3 ovarian
SNB-19 CNS = system: SNB-19 CNS
DMS 114 small cell lung = system: DMS 114 small cell lung
XF 498 CNS = system: XF 498 CNS
A498 renal = system: A498 renal
SF-539 CNS = system: SF-539 CNS
HT29 colon = system: HT29 colon
HOP-92 NSCLC = system: HOP-92 NSCLC
SR leukemia = system: SR leukemia
K-562 leukemia = system: K-562 leukemia
IGROV1 ovarian = system: IGROV1 ovarian
DLD-1 colon = system: DLD-1 colon
UACC-257 melanoma = system: UACC-257 melanoma
NCI-H226 lung = system: NCI-H226 lung
M14 melanoma = system: M14 melanoma
SF-268 CNS = system: SF-268 CNS
HOP-18 NSCLC = system: HOP-18 NSCLC
ACHN renal = system: ACHN renal
SNB-75 CNS = system: SNB-75 CNS
NCI-H23 lung = system: NCI-H23 lung
KM20L2 colon = system: KM20L2 colon

Measured: TGI

Cn1cnc2nc(Cl)nc(NC(C)(C)C(C)(C)O)c21
> 100 µM: all assays above
